From ChEMBL document CHEMBL1145358, “2-Phenyl-2,3-dihydro-1H-imidazo[1,2-b]pyrazole derivatives: new potent inhibitors of fMLP-induced neutrophil chemotaxis” (Bioorg Med Chem Lett, 2007)
pIC50, pKi: −log10 of the molar value.

Columns and labels:
[1] = Inhibition of fMLP-OMe-induced chemotaxis in human neutrophils; assay type: functional
[2] = target: T1, fMet-Leu-Phe receptor (Homo sapiens, UniProt P21462); experiment: Displacement of [3H]-fMLP from FPR in human neutrophils
T1 sequence (P21462 whole entry): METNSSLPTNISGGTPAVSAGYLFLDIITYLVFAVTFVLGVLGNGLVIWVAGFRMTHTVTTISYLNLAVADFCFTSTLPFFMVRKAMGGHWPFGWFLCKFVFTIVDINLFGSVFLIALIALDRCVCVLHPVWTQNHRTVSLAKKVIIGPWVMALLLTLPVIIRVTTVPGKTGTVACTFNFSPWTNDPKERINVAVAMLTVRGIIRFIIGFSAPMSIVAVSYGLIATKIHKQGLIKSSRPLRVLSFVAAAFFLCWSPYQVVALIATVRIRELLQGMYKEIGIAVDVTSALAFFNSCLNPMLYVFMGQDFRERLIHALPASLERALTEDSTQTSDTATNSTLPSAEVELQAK

SMILES | pIC50 [1] | pKi [2]
O=C(c1cnn2c1NC(c1ccccc1)C2)N1CCCCCC1 (centres undefined) | 9.00 | < 5.00
O=C(c1cnn2c1NC(c1ccccc1)C2)N1CCN(Cc2ccccc2)CC1 (centres undefined) | 7.57 | < 5.00
O=C(O)c1cnn2c1NC(c1ccccc1)C2 (centres undefined) | 8.94 | < 5.00
CCOC(=O)c1cnn2c1NC(c1ccccc1)C2 (centres undefined) | 5.62 | < 5.00
c1ccc(C2Cn3nccc3N2)cc1 (centres undefined) | 7.54 | < 5.00
O=C(c1cnn2c1NC(c1ccccc1)C2)N1CCCC1 (centres undefined) | 5.05 | < 5.00
CC(C)(C)NC(=O)c1cnn2c1NC(c1ccccc1)C2 (centres undefined) | 8.12 | < 5.00
NC(=O)c1cnn2c1NC(c1ccccc1)C2 (centres undefined) | 8.44 | < 5.00
O=C(c1cnn2c1NC(c1ccccc1)C2)N1CCOCC1 (centres undefined) | 6.52 | < 5.00
O=C(NC1CC1)c1cnn2c1NC(c1ccccc1)C2 (centres undefined) | 9.32 | < 5.00
O=C(c1cnn2c1NC(c1ccccc1)C2)N1CCCCC1 (centres undefined) | 8.83 | < 5.00
O=C(NCc1ccccc1)c1cnn2c1NC(c1ccccc1)C2 (centres undefined) | 5.00 | < 5.00
